Twelve compounds from patent US8748415B2 (priority 2011, dated 2014) can be followed below.

pEC50: −log10 of the molar value.

In one experiment the test system is recombinant NL4-3 virus (Renilla luciferase in nef, Gag P373S). Nature of the experiment: HIV cell culture assay (luciferase activity in MT-2 cells infected with NLRluc recombinant virus). Format: cell-based. Conditions: NL43, MT-2 cells infected 4-5 days with NLRluc recombinant virus, class symbol. An outline of the steps: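 Activity was read as luciferase output (Dual Luciferase reagents premixed with lysis solution) after 4–5 days of infection in serially diluted inhibitor. Host cells were MT-2 in 10% FBS RPMI. The reporter virus came from transfected 293T cells and was titered on MT-2.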
`C=C(C)[C@@H]1CC[C@]2(CNC3(C(=O)N4CCS(=O)(=O)CC4)CC3)CC[C@]3(C)[C@H](CC[C@@H]4[C@@]5(C)CC=C(c6ccc(C(=O)O)cc6)C(C)(C)[C@@H]5CC[C@]43C)[C@@H]12` [Example 116, 4-((1R,3aS,5aR,5bR,7aR,11aS,11bR,13aR,13bR)-3a-(((1-((1,1-dioxido-4-thiomorpholinyl)carbonyl)cyclopropyl)amino)methyl)-1-isopropenyl-5a,5b,8,8,11a-pentamethyl-2,3,3a,4,5,5a,5b,6,7,7a,8,11,11a,11b,12,13,13a,13b-octadecahydro-1H-cyclopenta[a]chrysen-9-yl)benzoic acid]: the negative logarithm of the EC50 (pEC50) was > 7.00.

As to `C=C(C)[C@@H]1CC[C@]2(CNCCC(=O)N3CCC(F)(F)CC3)CC[C@]3(C)[C@H](CC[C@@H]4[C@@]5(C)CC=C(c6ccc(C(=O)O)cc6)C(C)(C)[C@@H]5CC[C@]43C)[C@@H]12` [Example 117, 4-((1R,3aS,5aR,5bR,7aR,11aS,11bR,13aR,13bR)-3a-((3-(4,4-difluoropiperidin-1-yl)-3-oxopropylamino)methyl)-5a,5b,8,8,11a-pentamethyl-1-(prop-1-en-2-yl)-2,3,3a,4,5,5a,5b,6,7,7a,8,11,11a,11b,12,13,13a,13b-octadecahydro-1H-cyclopenta[a]chrysen-9-yl)benzoic acid], the pEC50 is > 7.00.

On to `C=C(C)[C@@H]1CC[C@]2(CNCCC(=O)N3CCS(=O)(=O)CC3)CC[C@]3(C)[C@H](CC[C@@H]4[C@@]5(C)CC=C(c6ccc(C(=O)O)cc6)C(C)(C)[C@@H]5CC[C@]43C)[C@@H]12` [Example 118, 4-((1R,3aS,5aR,5bR,7aR,11aS,11bR,13aR,13bR)-3a-(((3-(1,1-dioxido-4-thiomorpholinyl)-3-oxopropyl)amino)methyl)-1-isopropenyl-5a,5b,8,8,11a-pentamethyl-2,3,3a,4,5,5a,5b,6,7,7a,8,11,11a,11b,12,13,13a,13b-octadecahydro-1H-cyclopenta[a]chrysen-9-yl)benzoic acid], for which the pEC50 was > 7.00.

`C=C(C)[C@@H]1CC[C@]2(CNCCC(=O)N3CCn4c(nnc4C(F)(F)F)C3)CC[C@]3(C)[C@H](CC[C@@H]4[C@@]5(C)CC=C(c6ccc(C(=O)O)cc6)C(C)(C)[C@@H]5CC[C@]43C)[C@@H]12` [Example 119]: the pEC50 is > 7.00.

As to `C=C(C)[C@@H]1CC[C@]2(CNCCC(=O)N3CCS(=O)(=O)C3)CC[C@]3(C)[C@H](CC[C@@H]4[C@@]5(C)CC=C(c6ccc(C(=O)O)cc6)C(C)(C)[C@@H]5CC[C@]43C)[C@@H]12` [Example 120, 4-((1R,3aS,5aR,5bR,7aR,11aS,11bR,13aR,13bR)-3a-(((3-(1,1-dioxido-1,3-thiazolidin-3-yl)-3-oxopropyl)amino)methyl)-1-isopropenyl-5a,5b,8,8,11a-pentamethyl-2,3,3a,4,5,5a,5b,6,7,7a,8,11,11a,11b,12,13,13a,13b-octadecahydro-1H-cyclopenta[a]chrysen-9-yl)benzoic acid], the pEC50 was > 7.00.

Take `C=C(C)[C@@H]1CC[C@]2(CNCCC(=O)N3C[C@H]4CC[C@@H](C3)N4C)CC[C@]3(C)[C@H](CC[C@@H]4[C@@]5(C)CC=C(c6ccc(C(=O)O)cc6)C(C)(C)[C@@H]5CC[C@]43C)[C@@H]12` [Example 121, 4-((1R,3aS,5aR,5bR,7aR,11aS,11bR,13aR,13bR)-5a,5b,8,8,11a-pentamethyl-3a-((3-((1R,5S)-8-methyl-3,8-diazabicyclo[3.2.1]octan-3-yl)-3-oxopropylamino)methyl)-1-(prop-1-en-2-yl)-2,3,3a,4,5,5a,5b,6,7,7a,8,11,11a,11b,12,13,13a,13b-octadecahydro-1H-cyclopenta[a]chrysen-9-yl)benzoic acid]: the negative logarithm of the EC50 (pEC50) was > 7.00.

In the case of `C=C(C)[C@@H]1CC[C@]2(CNCCC(=O)N3CCSCC3)CC[C@]3(C)[C@H](CC[C@@H]4[C@@]5(C)CC=C(c6ccc(C(=O)O)cc6)C(C)(C)[C@@H]5CC[C@]43C)[C@@H]12` [Example 122, 4-((1R,3aS,5aR,5bR,7aR,11aS,11bR,13aR,13bR)-5a,5b,8,8,11a-pentamethyl-3a-((3-oxo-3-thiomorpholinopropylamino)methyl)-1-(prop-1-en-2-yl)-2,3,3a,4,5,5a,5b,6,7,7a,8,11,11a,11b,12,13,13a,13b-octadecahydro-1H-cyclopenta[a]chrysen-9-yl)benzoic acid], the pEC50 is > 7.00.

For `C=C(C)[C@@H]1CC[C@]2(CNCCC(=O)N3CCC4(CCN(C)C4=O)CC3)CC[C@]3(C)[C@H](CC[C@@H]4[C@@]5(C)CC=C(c6ccc(C(=O)O)cc6)C(C)(C)[C@@H]5CC[C@]43C)[C@@H]12` [Example 123, 4-((1R,3aS,5aR,5bR,7aR,11aS,11bR,13aR,13bR)-5a,5b,8,8,11a-pentamethyl-3a-((3-(2-methyl-1-oxo-2,8-diazaspiro[4.5]decan-8-yl)-3-oxopropylamino)methyl)-1-(prop-1-en-2-yl)-2,3,3a,4,5,5a,5b,6,7,7a,8,11,11a,11b,12,13,13a,13b-octadecahydro-1H-cyclopenta[a]chrysen-9-yl)benzoic acid], the negative logarithm of the EC50 (pEC50) is > 7.00.

Take `C=C(C)[C@@H]1CC[C@]2(CNCCC(=O)N3CCN(CCS(C)(=O)=O)CC3)CC[C@]3(C)[C@H](CC[C@@H]4[C@@]5(C)CC=C(c6ccc(C(=O)O)cc6)C(C)(C)[C@@H]5CC[C@]43C)[C@@H]12` [Example 124, 4-((1R,3aS,5aR,5bR,7aR,11aS,11bR,13aR,13bR)-5a,5b,8,8,11a-pentamethyl-3a-((3-(4-(2-(methylsulfonyl)ethyl)piperazin-1-yl)-3-oxopropylamino)methyl)-1-(prop-1-en-2-yl)-2,3,3a,4,5,5a,5b,6,7,7a,8,11,11a,11b,12,13,13a,13b-octadecahydro-1H-cyclopenta[a]chrysen-9-yl)benzoic acid]: the pEC50 was > 7.00.

For `C=C(C)[C@@H]1CC[C@]2(CNCCC(=O)N(C)CCS(C)(=O)=O)CC[C@]3(C)[C@H](CC[C@@H]4[C@@]5(C)CC=C(c6ccc(C(=O)O)cc6)C(C)(C)[C@@H]5CC[C@]43C)[C@@H]12` [Example 125, 4-((1R,3aS,5aR,5bR,7aR,11aS,11bR,13aR,13bR)-5a,5b,8,8,11a-pentamethyl-3a-((3-(methyl(2-(methylsulfonyl)ethyl)amino)-3-oxopropylamino)methyl)-1-(prop-1-en-2-yl)-2,3,3a,4,5,5a,5b,6,7,7a,8,11,11a,11b,12,13,13a,13b-octadecahydro-1H-cyclopenta[a]chrysen-9-yl)benzoic acid], the pEC50 was > 7.00.

Still in this experiment, the particulars now being: NL43, MT-2 cells infected 4-5 days with NLRluc recombinant virus, numeric value.
For `C=C(C)[C@@H]1CC[C@]2(CNCC(=O)N3CCC(F)(F)CC3)CC[C@]3(C)[C@H](CC[C@@H]4[C@@]5(C)CC=C(c6ccc(C(=O)O)cc6)C(C)(C)[C@@H]5CC[C@]43C)[C@@H]12` [Example 115, 4-((1R,3aS,5aR,5bR,7aR,11aS,11bR,13aR,13bR)-3a-((2-(4,4-difluoropiperidin-1-yl)-2-oxoethylamino)methyl)-5a,5b,8,8,11a-pentamethyl-1-(prop-1-en-2-yl)-2,3,3a,4,5,5a,5b,6,7,7a,8,11,11a,11b,12,13,13a,13b-octadecahydro-1H-cyclopenta[a]chrysen-9-yl)benzoic acid], the pEC50 is 8.52.

Take `C=C(C)[C@@H]1CC[C@]2(CNCCC(=O)N3CCC4(CC3)OCCO4)CC[C@]3(C)[C@H](CC[C@@H]4[C@@]5(C)CC=C(c6ccc(C(=O)O)cc6)C(C)(C)[C@@H]5CC[C@]43C)[C@@H]12` [Example 126]: the pEC50 was 9.00.

The pEC50 is the negative decadic logarithm of the EC50, by convention in mol/L.
